What was measured:
[1] = test system: healthy adult subjects; test: Phase 1 Part A (SAD) safety and tolerability; format: in vivo, human
Method: After a baseline period of 24 hours in the clinic, all subjects receive a LD, 1-hour infusion on Day 1. After a 48-hour wash-out period, in which PK and PK/PD data iscollected, subjects receive a 23-hour infusion (1-hour LD followed by a 22-hour maintenance dose). See FIG. 45 for the different dose levels in each SAD cohort. See e.g., Table 33 below. Part A is double-blinded. The cohorts of Part A is conducted sequentially starting with SAD cohort 1.
On Day 1 for Part A, subjects receive LD, 1-hour infusion. On Day 3, after a 48-hour washout period, subjects then receive a 23-hour infusion (1-hour LD followed by a 22-hour MD). No earlier than 24 hours after the end of infusion, subjects is discharged from the clinic on Day 5 (End of Treatment Period [EOTP]). A treatment protocol for the SAD cohorts of Part A is described below: • a. Predose assessments (vital signs and PK assessments) should be done within 30 min of the start of infusion. • b. Vital signs include diastolic and systolic blood pressure and pulse. In addition, temperature and respiratory rate should be collected on predose Day 1 and EOT Day 5. • c. […] AEs was recorded from the start time of the first BGE-105 or placebo study drug infusion until the end of the subject's participation in the study. […]
The Safety Analysis Set is used for safety analysis. Subjects is analyzed based on the actual treatment received.

[2] = 14-day IV toxicity study in the rat; format: in vivo
Method: The updated exposure margins considering the highest maximum exposures in rats and dogs are calculated as follows: • Maximum exposure in the rat (male) was in the 14-day IV study and at the 300 mg/kg dose, the AUClast is 1070 μg*hr/mL. • Maximum exposure in dogs occurred at the 300 mg/kg dose in the 9-month oral toxicity study and the AUClast is 1310*μg·hr/mL.

[3] = test system: immobilized aged mice; settings: immobilized aged mice (20-months-old), orally dosed, vs control vehicle; cited from earlier work

For `COc1cccc(OC)c1-n1c(NS(=O)(=O)[C@@H](C)[C@H](C)c2ncc(C)cn2)nnc1-c1cncc(C)c1` [BGE-105, (2S,3R)—N-(4-(2,6-dimethoxyphenyl)-5-(5-methyl-3-pyridinyl)-4H-1,2,4-triazol-3-yl)-3-(5-methyl-2-pyrimidinyl)-2-butanesulfonamide], the Serious adverse events ([1]; SAD cohorts Part A) was “no serious adverse events”, the Tolerability ([1]; SAD cohorts, all doses including 240 mg/1440 mg) was “well tolerated” and the NOAEL [2] was “maximum dose tested”. For the same molecule, the Muscle atrophy [3] was “significantly reduced muscle atrophy”.

— patent US20240366602A1, “COMBINATION THERAPY OF APELIN RECEPTOR AGONIST AND GLP-1 RECEPTOR AGONIST FOR TREATING A DISEASE OR CONDITION ASSOCIATED WITH WEIGHT GAIN” (BioAge Labs, Inc., priority 2023, published 2024)
